Experimental data published in the supplement of paper PMC11451515.

System: SEM cells
Assay: cell viability relative to DMSO control; higher = less cytotoxic
Conditions: 48 h
Summary of the method: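 Before seeding, each leukemia line was adapted for at least four passages in each medium. NOMO1 or SEM cells (500 cells/well) and P12-Ichikawa cells (1000 cells/well) went into 1536-well plates at 5 μl, then received library compounds in DMSO by pin dosing across 11 threefold concentrations, 47 μM to 0.79 nM. Readout was CellTiter-Glo One luminescence after 48 h at 37°C, and viability is given as a per-plate percentage of DMSO wells, with cell-free wells as background.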

[1] = HPLM + 10% dialyzed FBS, 0.000781 µM
[2] = HPLM + 10% dialyzed FBS, 0.00234 µM
[3] = HPLM + 10% dialyzed FBS, 0.00702 µM
[4] = HPLM + 10% dialyzed FBS, 0.0211 µM
[5] = HPLM + 10% dialyzed FBS, 0.0632 µM
[6] = HPLM + 10% dialyzed FBS, 0.19 µM
[7] = HPLM + 10% dialyzed FBS, 0.569 µM
[8] = HPLM + 10% dialyzed FBS, 1.71 µM
[9] = HPLM + 10% dialyzed FBS, 5.12 µM
[10] = HPLM + 10% dialyzed FBS, 15.4 µM
[11] = HPLM + 10% dialyzed FBS, 46.1 µM
[12] = RPMI 5 mM glucose + 10% FBS, 0.000781 µM
[13] = RPMI 5 mM glucose + 10% FBS, 0.00234 µM
[14] = RPMI 5 mM glucose + 10% FBS, 0.00702 µM
[15] = RPMI 5 mM glucose + 10% FBS, 0.0211 µM
[16] = RPMI 5 mM glucose + 10% FBS, 0.0632 µM
[17] = RPMI 5 mM glucose + 10% FBS, 0.19 µM
[18] = RPMI 5 mM glucose + 10% FBS, 0.569 µM
[19] = RPMI 5 mM glucose + 10% FBS, 1.71 µM
[20] = RPMI 5 mM glucose + 10% FBS, 5.12 µM
[21] = RPMI 5 mM glucose + 10% FBS, 15.4 µM
[22] = RPMI 5 mM glucose + 10% FBS, 46.1 µM
[23] = RPMI 5 mM glucose + 10% dialyzed FBS, 0.000781 µM
[24] = RPMI 5 mM glucose + 10% dialyzed FBS, 0.00234 µM
[25] = RPMI 5 mM glucose + 10% dialyzed FBS, 0.00702 µM
[26] = RPMI 5 mM glucose + 10% dialyzed FBS, 0.0211 µM
[27] = RPMI 5 mM glucose + 10% dialyzed FBS, 0.0632 µM
[28] = RPMI 5 mM glucose + 10% dialyzed FBS, 0.19 µM
[29] = RPMI 5 mM glucose + 10% dialyzed FBS, 0.569 µM
[30] = RPMI 5 mM glucose + 10% dialyzed FBS, 1.71 µM
[31] = RPMI 5 mM glucose + 10% dialyzed FBS, 5.12 µM
[32] = RPMI 5 mM glucose + 10% dialyzed FBS, 15.4 µM
[33] = RPMI 5 mM glucose + 10% dialyzed FBS, 46.1 µM

SMILES | cell viability [1] | cell viability [2] | cell viability [3] | cell viability [4] | cell viability [5] | cell viability [6] | cell viability [7] | cell viability [8] | cell viability [9] | cell viability [10] | cell viability [11] | cell viability [12] | cell viability [13] | cell viability [14] | cell viability [15] | cell viability [16] | cell viability [17] | cell viability [18] | cell viability [19] | cell viability [20] | cell viability [21] | cell viability [22] | cell viability [23] | cell viability [24] | cell viability [25] | cell viability [26] | cell viability [27] | cell viability [28] | cell viability [29] | cell viability [30] | cell viability [31] | cell viability [32] | cell viability [33]
C/C=C1\NC(=O)[C@H]2CSSCC/C=C\[C@H](CC(=O)N[C@H](C(C)C)C(=O)N2)OC(=O)[C@H](C(C)C)NC1=O | 81.1% | 89% | 95.1% | 101% | 5.64% | 4.52% | 4.32% | 4.63% | 4.25% | 3.1% | 4.21% | 100% | 103% | 105% | 81.5% | 4.85% | 4.94% | 4.25% | 4.39% | 4.14% | 3.14% | 4.36% | 73% | 106% | 85.9% | 90.4% | 5.18% | 4.76% | 4.87% | 4.53% | 4.12% | 2.58% | 4.19%
COc1cnc(N[S+](=O)([O-])c2ccc(N)cc2)nc1 | 75.9% | 96.2% | 85.7% | 86.1% | 93.2% | 94.6% | 91.9% | 93.1% | 109% | 102% | 103% | 94.9% | 97.4% | 99.7% | 104% | 101% | 107% | 113% | 97.3% | 107% | 102% | 105% | 75.9% | 91.6% | 106% | 104% | 93.7% | 107% | 108% | 115% | 117% | 106% | 118%
Nc1ccccc1NC(=O)c1ccc(CNC(=O)OCc2cccnc2)cc1 | 109% | 120% | 120% | 111% | 118% | 119% | 87.2% | 21.2% | 8.14% | 7.22% | 5.16% | 109% | 117% | 136% | 125% | 132% | 120% | 89.3% | 12.2% | 7.97% | 6.97% | 4.6% | 94.3% | 105% | 99.8% | 114% | 124% | 104% | 76.3% | 13% | 8.44% | 7.8% | 5.76%
C#Cc1cccc(Nc2ncnc3cc(OCCOC)c(OCCOC)cc23)c1 | 93.5% | 95.7% | 90.4% | 95.2% | 102% | 104% | 92.9% | 94.7% | 71.5% | 83% | 32.9% | 119% | 133% | 120% | 128% | 114% | 119% | 97.1% | 115% | 77.9% | 107% | 27.4% | 86.8% | 104% | 90.5% | 99.2% | 90.2% | 93.6% | 87.5% | 77.9% | 59.7% | 68.6% | 19.9%
CC1=C(/C=C/C(C)=C/C=C/C(C)=C/C=C/C=C(C)/C=C/C=C(C)/C=C/C2=C(C)CCCC2(C)C)C(C)(C)CCC1 | 96.8% | 101% | 106% | 113% | 102% | 108% | 94.3% | 110% | 115% | 95.4% | 98.1% | 93.1% | 115% | 105% | 98.3% | 106% | 108% | 94.2% | 118% | 119% | 104% | 99.4% | 101% | 100% | 114% | 106% | 109% | 105% | 92.8% | 125% | 103% | 119% | 85.5%
COc1ccc(-c2cc3nccn3c(Nc3ncccc3C(N)=O)n2)cc1OC | 81.8% | 92.1% | 90.4% | 86.8% | 85.7% | 91.4% | 85.3% | 61.6% | 74.4% | 65.9% | 58.8% | 82.7% | 105% | 103% | 100% | 99% | 87.2% | 89.2% | 63.1% | 81% | 60.7% | 58.1% | 85.7% | 91.6% | 86.6% | 101% | 91% | 76.2% | 68.5% | 49.9% | 59.3% | 49.1% | 49.5%
COc1nccc(-c2c(-c3ccc(F)cc3)ncn2C2CCNCC2)n1 | 98.2% | 114% | 120% | 107% | 120% | 114% | 113% | 110% | 102% | 98.7% | 81.7% | – | – | – | – | – | – | – | – | – | – | – | 69.4% | 117% | 144% | 113% | 116% | 114% | 104% | 126% | 110% | 95.8% | 79.5%
